Test system: HBV
Assay: Intracellular HBV replicative intermediates in HBV baculovirus infected HepG2 cells (Southern blot, densitometry)
Type: cell-based, hepatitis B virus
Details: 50 pfu/cell
Method: On the indicated days (3, 6, and 9 days of drug treatment) HBV replication in HepG2 cultures was assessed by examining extracellular HBV DNA and intracellular replicative intermediates.
(T). […] Relaxed circular (RC) and double-stranded (DS) forms of HBV DNA are indicated. […] (T). […] Replicative intermediates were analyzed by Southern blotting. Double-stranded (DS) and single-stranded (SS) forms of HBV genomic DNA are indicated.
HepG2 cells were seeded at approximately 20% to 40% confluency and then were grown for 16 to 24 hours before infection. On the day of infection, duplicate plates of cells were trypsinized, and viable cell number was determined with a hemocytometer using Trypan blue exclusion. Average cell counts were calculated and used to determine the volume of high-titer viral stock necessary to infect cells at the indicated moi. Baculovirus was diluted into MEM-FBS to achieve the appropriate moi using volumes of 1.0 and 0.25 mL to infect 100-mm and 35-mm dishes, respectively. Baculovirus was adsorbed to HepG2 cells for one hour at 37° C. with gentle rocking every 15 minutes to ensure that the inoculum was evenly distributed. The inoculum was then aspirated and HepG2 cells were washed two times with phosphate-buffered saline and refed MEM-FBS.
HBV core particles were isolated from the cytoplasmic fraction of HepG2 cells lysed in 0.5% Np40. Cytoplasmic extracts were adjusted to 10 mmol/L MgCl2 and unprotected DNA was removed by an incubation with 500 μg/mL DNasel for 1 hour at 37° C. Samples were then adjusted to 50 mmol/L ethylenediaminetetraacetic acid, 50 mmol/L Tris, 0.5% sodium dodecyl sulfate, and digested with 500 μg/mL. Proteinase K for 1.5 hours at 37° C. Following sequential phenol and chloroform extractions, nucleic acids were recovered by ethanol precipitation. Nucleic acids were resuspended in 50 μL TE (10 mmol/L Tris, 1 mmol/L ethylenediaminetetraacetic acid), normalized by OD260, and digested with 100 μg/mL RNase (Boehringer Mannheim, Indianapolis, Ind.) for one hour at 37° C. before analysis by electrophoresis and Southern blotting. A Molecular Dynamics (Sunnyvale, Calif.) 100A laser densitometer equipped with Quantity One software (Protein Databases Inc., Huntington Station, N.Y.) was used to analyze suitable exposures of Southern blots.
3TC was a gift of BioChem Therapeutic Inc. (Laval, Quebec, Canada). […] Medium containing 3TC was prepared daily as needed using fresh aliquots of 3TC.

## Nc1ccn([C@@H]2CS[C@H](CO)O2)c(=O)n1 [3TC, (−)-2′-dideoxy-3′-thiacytidine]
0.02 μM 3TC, P (from 16 h prior to infection), day 4 p.i. (3 days treatment)
  intracellular HBV replicative intermediates, % Untreated Control: 82.5 % Untreated Control
0.02 μM 3TC, P (from 16 h prior to infection), day 7 p.i. (6 days treatment)
  intracellular HBV replicative intermediates, % Untreated Control: 100 % Untreated Control
0.02 μM 3TC, P (from 16 h prior to infection), day 10 p.i. (9 days treatment)
  intracellular HBV replicative intermediates, % Untreated Control: 68.2 % Untreated Control
0.02 μM 3TC, T (from 24 h p.i.), day 4 p.i. (3 days treatment)
  intracellular HBV replicative intermediates, % Untreated Control: 57.4 % Untreated Control
0.02 μM 3TC, T (from 24 h p.i.), day 7 p.i. (6 days treatment)
  intracellular HBV replicative intermediates, % Untreated Control: 100 % Untreated Control
0.02 μM 3TC, T (from 24 h p.i.), day 10 p.i. (9 days treatment)
  intracellular HBV replicative intermediates, % Untreated Control: 59.6 % Untreated Control
0.2 μM 3TC, P (from 16 h prior to infection), day 4 p.i. (3 days treatment)
  intracellular HBV replicative intermediates, % Untreated Control: 41.7 % Untreated Control
0.2 μM 3TC, P (from 16 h prior to infection), day 7 p.i. (6 days treatment)
  intracellular HBV replicative intermediates, % Untreated Control: 20.0 % Untreated Control
0.2 μM 3TC, P (from 16 h prior to infection), day 10 p.i. (9 days treatment)
  intracellular HBV replicative intermediates, % Untreated Control: 6.5 % Untreated Control
0.2 μM 3TC, T (from 24 h p.i.), day 4 p.i. (3 days treatment)
  intracellular HBV replicative intermediates, % Untreated Control: 35.0 % Untreated Control
0.2 μM 3TC, T (from 24 h p.i.), day 7 p.i. (6 days treatment)
  intracellular HBV replicative intermediates, % Untreated Control: 16.7 % Untreated Control
0.2 μM 3TC, T (from 24 h p.i.), day 10 p.i. (9 days treatment)
  intracellular HBV replicative intermediates, % Untreated Control: 6.7 % Untreated Control
2.0 μM 3TC, P (from 16 h prior to infection), day 4 p.i. (3 days treatment)
  intracellular HBV replicative intermediates, % Untreated Control: 8.2 % Untreated Control
2.0 μM 3TC, P (from 16 h prior to infection), day 7 p.i. (6 days treatment)
  intracellular HBV replicative intermediates, % Untreated Control: 7.1 % Untreated Control
2.0 μM 3TC, P (from 16 h prior to infection), day 10 p.i. (9 days treatment)
  intracellular HBV replicative intermediates, % Untreated Control: 1.3 % Untreated Control
2.0 μM 3TC, T (from 24 h p.i.), day 4 p.i. (3 days treatment)
  intracellular HBV replicative intermediates, % Untreated Control: 12.1 % Untreated Control
2.0 μM 3TC, T (from 24 h p.i.), day 7 p.i. (6 days treatment)
  intracellular HBV replicative intermediates, % Untreated Control: 8.5 % Untreated Control
2.0 μM 3TC, T (from 24 h p.i.), day 10 p.i. (9 days treatment)
  intracellular HBV replicative intermediates, % Untreated Control: 2.1 % Untreated Control
